Common to all, as to assay type: cell-based
The target in assay [1] is T1, human glucagon-like peptide 1 receptor (GLP-1R) (Homo sapiens, UniProt P43220).
T1 construct: expressed in transfected cells
The assay can be described thus: GLP-1 receptor efficacy assay (cAMP AlphaScreen, CHO cells). Conditions: Table 1B; for Ratio GLP-1/Glucagon: EC50 [GLP-1R]/EC50 [Glucagon-R]; for EC50: same protocol, different laboratory, read-out: EC50 hGLP-1R CHO-K1. An excerpt: (§1) The cDNA encoding either the human glucagon receptor (Glucagon-R) (primary accession number P47871) or the human glucagon-like peptide 1 receptor (GLP-1R) (primary accession number P43220) were synthesized and cloned into a mammalian expression vector containing a Zeocin resistance marker.
(§2) The mammalian expression vectors encoding the Glucagon-R or the GLP-1-R were transfected into Chinese hamster ovary (CHO) cells by the Attractene method method. Stably expressing clones were obtained by Zeocin selection (250 μg/mL) upon limited dilution of cells resistant to the selection pressure. Glucagon-R and GLP-1-R cell clones expressing were picked, propagated and tested in the Glucagon-R and GLP-1-R efficacy assays as described below. One Glucagon-R expressing clone and one GLP-1-R expressing clone were chosen for compound profiling.
(§3) CHO cells expressing the human Glucagon-R, or human GLP-1-R were seeded 24 hours prior to the assay at 30,000 cells per well in 96-well microtiter plates in culture in 100 μl growth medium. On the day of analysis, growth medium was removed and the cells were washed once with 200 μl of assay buffer (Krebs-Ringer-buffer—KRBH). The buffer was removed and the cells were incubated for 15 min at room temperature in 10 μl KRBH (KRBH+10 mM HEPES, 5 mM NaHCO3, 0.1% (V/V) BSA) with 0.1 mM IBMX in deionized water containing increasing concentrations of test peptides. The reaction was stopped by the addition of lysis buffer (0.1% w/v BSA, 5 mM HEPES, 0.3% v/v Tween-20). After cell lysis for 10 min at room temperature, lysates were transferred to 384-well plates and 10 μl of acceptor/donorbead mixture as contained in the AlphaScreen™ cAMP Functional Assay Kit was added. After one hour of incubation at room temperature in the dark, the cAMP content was determined applying the AlphaScreen™ cAMP Functional Assay Kit from Perkin-Elmer according to manufacturer instructions. EC50 and relative efficacies compared to reference compounds (glucagon and GLP-1) were calculated applying computer aided curve fitting. The GLP-1/glucagon ratio is calculated as defined earlier.

For assay [2], the target named is T2, human glucagon receptor (Glucagon-R) (Homo sapiens, UniProt P47871).
T2 construct: expressed in transfected cells
T2 sequence (P47871 26-477): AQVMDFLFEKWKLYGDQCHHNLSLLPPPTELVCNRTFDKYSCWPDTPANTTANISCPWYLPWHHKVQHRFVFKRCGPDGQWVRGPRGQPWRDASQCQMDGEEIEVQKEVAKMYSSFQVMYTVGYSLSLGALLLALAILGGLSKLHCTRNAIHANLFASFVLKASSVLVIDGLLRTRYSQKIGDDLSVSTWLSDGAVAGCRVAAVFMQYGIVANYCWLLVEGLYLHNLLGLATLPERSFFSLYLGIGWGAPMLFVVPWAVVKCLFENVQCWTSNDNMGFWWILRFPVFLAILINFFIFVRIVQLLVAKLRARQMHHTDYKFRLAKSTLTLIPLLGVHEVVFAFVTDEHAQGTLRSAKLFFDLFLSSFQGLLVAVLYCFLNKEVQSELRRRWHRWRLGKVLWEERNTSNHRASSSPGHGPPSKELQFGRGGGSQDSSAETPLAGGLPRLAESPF
Put plainly: Glucagon receptor efficacy assay (cAMP AlphaScreen, CHO cells). The note with it: Table 1B; same protocol, different laboratory; read-out: EC50 hGCGR CHO-K1.
Description: as §1, §2, §3
A general note: Bead proximity is the source of the signal in Alpha formats.

Assay [3] has as its target T3, endogenous glucagon receptor (Rattus norvegicus, UniProt P30082).
T3 construct: Agonistic activity of the test compounds on endogenous glucagon receptor; endogenous in cells; host or cells: primary rat hepatocytes
The assay can be described thus: Agonistic activity on endogenous glucagon receptor (glycogen synthesis rate in primary rat hepatocytes). The note with it: inhibition of glycogen synthesis rate, 3 hours, read-out: EC50 GLP-1R Rat hepat. As to the method:
Agonistic activity of the test compounds on endogenous glucagon receptor was determined by measuring their effect on rate of glycogen synthesis in primary rat hepatocytes. Upon activation of the glucagon receptor, an inhibition of the glycogen synthesis rate is expected. Rate of glycogen synthesis was determined by counting the amount of radioactively labeled glucose incorporated into the cellular glycogen stores in a defined period of time.
Primary rat hepatocytes were cultured at a density of 40,000 cells/well in a 24-well plate for 24 hours at 37° C. and 5% CO2.
Medium was discarded and the cells washed with PBS. 180 μL of KRBH-based buffer containing 0.1% BSA and glucose at a concentration of 22.5 mM was then added to the wells, followed by test compound and 40 μCi/ml D-[U14C] glucose (20 μL each). Incubation was continued for 3 hours.
At the end of the incubation period, the incubation buffer was aspirated and cells washed once with ice-cold PBS before lysis by incubation for 30 min at room temperature with 100 μL 1 mol/l NaOH.
Cell lysates were transferred to 96-well filter plates and glycogen precipitated by incubating the filter-plates for 120 min at 4° C. followed by washing the filter plates 4 times with ice-cold ethanol (70%). The resulting precipitates were filtered to dryness and the amount of incorporated ^14C-glucose determined by using a Topcount scintillation counter according to manufacturer's recommendations.
Wells with vehicle controls (0.1% (v/v) DMSO in KRBH buffer) were included as reference for non-inhibited glycogen synthesis (100% CTL). Wells without added D-[U^14C] glucose were included as controls for non-specific background signal (subtracted from all values). Endogenous glucagon peptide was used as a positive control.
All treatments were performed at least in triplicates.
Parameters calculated to describe the both the potency as well as the agonistic activity of each test compound on the endogenous glucagon receptor are pEC50 and % CTL. % CTL is determined by calculating the percentage of CPM/well in the presence of the test compound compared to the CPM/well of the vehicle control after subtracting the background CPM/well: [CPM/well(basal)−CPM/well(sample)]*100/[CPM/well(basal)−CPM/well(control)]
An activator of the glucagon receptor will result in an inhibition of the glycogen synthesis rate and will give % CTL values between 0% CTL (complete inhibition) and 100% CTL (no observable inhibition).
The resulting activity curves were plotted as absolute counts (unit: cpm/sample) over log (test compound concentration) and analyzed using the curve fitting program XLfit.
pEC50 (negative logarithmic value of EC50) reflects the potency of the test compound.
The terms EC50 and pEC50 quoted in relation to GLP-1R activation could equally be regarded as IC50 and pIC50 in relation to glycogen synthesis.

Assay [4] concerns the target T4, endogenous GLP-1 receptors (Mus musculus, UniProt O35659).
T4 construct: Agonistic activity of the test compounds on endogenous GLP-1 receptors; endogenous in cells
T4 sequence (O35659 22-463): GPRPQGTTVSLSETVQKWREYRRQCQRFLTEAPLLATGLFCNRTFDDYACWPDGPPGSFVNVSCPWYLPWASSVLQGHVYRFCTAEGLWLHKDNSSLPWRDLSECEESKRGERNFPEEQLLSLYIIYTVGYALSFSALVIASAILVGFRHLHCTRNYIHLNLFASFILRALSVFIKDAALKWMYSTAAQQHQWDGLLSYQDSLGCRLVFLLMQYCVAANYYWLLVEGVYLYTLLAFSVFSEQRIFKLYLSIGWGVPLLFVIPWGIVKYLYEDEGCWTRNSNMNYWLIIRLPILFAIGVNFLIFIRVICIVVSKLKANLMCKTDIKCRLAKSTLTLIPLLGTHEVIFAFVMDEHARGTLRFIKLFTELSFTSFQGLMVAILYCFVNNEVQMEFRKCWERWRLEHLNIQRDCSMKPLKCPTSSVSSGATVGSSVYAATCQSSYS
The assay can be described thus: Agonistic activity on endogenous GLP-1 receptor (cAMP, murine insulinoma cell line). The note with it: intracellular cAMP, 15 minutes at 26° C.; read-out: EC50 GLP-1R (murine insulinoma cells). As to the method:
Agonistic activity of the test compounds on endogenous GLP-1 receptors was determined using a murine insulinoma cell line. Intracellular cAMP was used an indicator of receptor activation.
Cells were cultured for 24 h at a density of 10,000 cells/well in a 384-well plate. Medium was removed and 10 μL KRBH buffer (NaCl 130 mM, KCl 3.6 mM, NaH2PO4 0.5 mM, MgSO4 0.5 mM, CaCl2) 1.5 mM) containing test compound or GLP-1 (at increasing concentrations from […] to 100 nM) or solvent control (0.1% (v/v) DMSO) was added to the wells for 15 minutes at a temperature of 26° C.
The cellular cAMP content is measured using the AlphaScreen cAMP Functional Assay Kit (Perkin Elmer). Measurement was performed using the Envision (PerkinElmer) according to manufacturer's recommendations.
All measurements were performed in quadruplicate.
Results were converted into cAMP concentrations using a cAMP standard curve prepared in KRBH buffer containing 0.1% (v/v) DMSO. The resulting cAMP curves were plotted as absolute cAMP concentrations (nM) over log (test compound concentration) and analyzed using the curve fitting program XLfit.
Parameters calculated to describe the both the potency as well as the agonistic activity of each test compound on the endogenous GLP-1 receptors were:
pEC50 (negative logarithmic value of EC50, a concentration resulting in a half-maximal elevation of cAMP levels, reflecting the potency of the test compound);
Percent control (% CTL)(% cAMP elevation for each test compound concentration normalized based on the GLP-1-induced maximum cAMP response (100% CTL)).

The source of these data is patent publication US10253081B2, “Glucagon analogues” (Zealand Pharma A/S, priority 2012, dated 2019).

*1 amine or outer side, *2 acyl side, *3 side chain or, on linkers, in order; H or OH if unused. Where a SMILES comes first, the peptide text is derived from it. Side-chain parts run from the residue outwards. [ ]: non-standard residue; d: D form. The star is where a group is joined. γGlu = O=C(O)[C@H](CCC(=O)[*:2])N[*:1]; Palmitoyl = CCCCCCCCCCCCCCCC(=O)*; Aib = CC(C)(N)C(=O)O

T3 sequence (P30082 27-485): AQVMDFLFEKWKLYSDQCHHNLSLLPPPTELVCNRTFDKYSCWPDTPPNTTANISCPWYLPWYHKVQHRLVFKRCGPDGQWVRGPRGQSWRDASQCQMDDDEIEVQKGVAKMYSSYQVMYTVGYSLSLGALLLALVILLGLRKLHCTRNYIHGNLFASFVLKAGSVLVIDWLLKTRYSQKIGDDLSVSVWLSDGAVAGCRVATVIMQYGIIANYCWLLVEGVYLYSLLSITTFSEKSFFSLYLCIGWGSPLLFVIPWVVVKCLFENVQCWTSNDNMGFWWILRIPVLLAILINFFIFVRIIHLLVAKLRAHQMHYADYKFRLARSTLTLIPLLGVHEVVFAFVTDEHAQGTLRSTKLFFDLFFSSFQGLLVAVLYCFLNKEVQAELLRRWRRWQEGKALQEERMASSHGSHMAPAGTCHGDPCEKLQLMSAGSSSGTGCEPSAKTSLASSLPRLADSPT
T1 sequence (P43220 24-463): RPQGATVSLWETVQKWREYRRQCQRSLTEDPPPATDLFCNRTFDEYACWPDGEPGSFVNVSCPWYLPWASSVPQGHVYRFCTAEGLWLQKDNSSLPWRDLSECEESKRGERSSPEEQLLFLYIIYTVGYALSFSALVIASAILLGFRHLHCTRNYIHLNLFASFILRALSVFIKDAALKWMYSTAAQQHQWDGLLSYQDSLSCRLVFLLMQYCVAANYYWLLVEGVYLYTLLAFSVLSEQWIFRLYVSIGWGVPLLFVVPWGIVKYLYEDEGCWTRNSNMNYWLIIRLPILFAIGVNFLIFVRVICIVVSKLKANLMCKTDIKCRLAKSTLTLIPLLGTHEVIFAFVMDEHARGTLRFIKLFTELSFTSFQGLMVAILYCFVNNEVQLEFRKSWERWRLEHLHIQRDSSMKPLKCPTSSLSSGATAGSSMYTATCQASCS

A word on the EC50: it is the concentration giving half of the maximal effect. For `CCCCCCCCCCCCCCCC(=O)N[C@@H](CCC(=O)NCCCC[C@H](NC(=O)[C@H](CCC(=O)O)NC(=O)[C@H](CCC(=O)O)NC(=O)[C@H](CC(C)C)NC(=O)[C@H](Cc1ccc(O)cc1)NC(=O)[C@H](CCCCN)NC(=O)[C@H](CO)NC(=O)[C@H](Cc1ccc(O)cc1)NC(=O)[C@H](CC(=O)O)NC(=O)[C@H](CO)NC(=O)[C@@H](NC(=O)[C@H](Cc1ccccc1)NC(=O)[C@@H](NC(=O)CNC(=O)[C@H](CCC(N)=O)NC(=O)C(C)(C)NC(=O)[C@@H](N)Cc1c[nH]cn1)[C@@H](C)O)[C@@H](C)O)C(=O)N[C@@H](C)C(=O)N[C@@H](C)C(=O)N[C@@H](CCCCN)C(=O)N[C@@H](CC(=O)O)C(=O)N[C@@H](Cc1ccccc1)C(=O)N[C@H](C(=O)N[C@@H](CCC(=O)O)C(=O)N[C@@H](Cc1c[nH]c2ccccc12)C(=O)N[C@@H](CC(C)C)C(=O)N[C@@H](CCC(=O)O)C(=O)N[C@@H](CO)C(=O)N[C@@H](C)C(N)=O)[C@@H](C)CC)C(=O)O` [Compound 20, H-H-Aib-QGTFTSDYSKYLEE-K(Hexadecanoyl-isoGlu)-AAKDFIEWLESA-NH2] (H-H[Aib]QGTFTSDYSKYLEEK([γGlu-Palmitoyl])AAKDFIEWLESA-NH2), the “Ratio GLP-1/Glucagon” value in assay [1] turned out to be 0.34. For the same compound, the EC50 came to 0.23 nM in assay [1], 0.68 nM in assay [2], 0.39 nM in assay [3] and 0.27 nM in assay [4].

With `CCCCCCCCCCCCCCCC(=O)N[C@@H](CCC(=O)NCCCC[C@H](NC(=O)[C@H](CCC(=O)O)NC(=O)[C@H](CCC(=O)O)NC(=O)[C@H](CC(C)C)NC(=O)[C@H](Cc1ccc(O)cc1)NC(=O)[C@H](CCCCN)NC(=O)[C@H](CO)NC(=O)[C@H](Cc1ccc(O)cc1)NC(=O)[C@H](CC(=O)O)NC(=O)[C@H](CO)NC(=O)[C@@H](NC(=O)[C@H](Cc1ccccc1)NC(=O)[C@@H](NC(=O)CNC(=O)[C@H](CCC(N)=O)NC(=O)[C@H](CO)NC(=O)[C@@H](N)Cc1c[nH]cn1)[C@@H](C)O)[C@@H](C)O)C(=O)N[C@@H](C)C(=O)N[C@@H](C)C(=O)N[C@@H](CCCCN)C(=O)N[C@@H](CC(=O)O)C(=O)N[C@@H](Cc1ccccc1)C(=O)N[C@H](C(=O)N[C@@H](CCC(=O)O)C(=O)N[C@@H](Cc1c[nH]c2ccccc12)C(=O)N[C@@H](CC(C)C)C(=O)N[C@@H](CCC(=O)O)C(=O)N[C@@H](CO)C(=O)N[C@@H](C)C(N)=O)[C@@H](C)CC)C(=O)O` [Compound 22, H-HSQGTFTSDYSKYLEE-K(Hexadecanoyl-isoGlu)-AAKDFIEWLESA-NH2] (H-HSQGTFTSDYSKYLEEK([γGlu-Palmitoyl])AAKDFIEWLESA-NH2), the “Ratio GLP-1/Glucagon” value in assay [1] was found to be 2.40. For the same compound, the EC50 in assay [1] was 0.24 nM; in assay [2], 0.1 nM; in assay [3], 0.28 nM; in assay [4] it was 0.35 nM.

Take `CCCCCCCCCCCCCCCC(=O)N[C@@H](CCC(=O)NCCCC[C@H](NC(=O)[C@H](CCC(=O)O)NC(=O)[C@H](CCC(=O)O)NC(=O)[C@H](CC(C)C)NC(=O)[C@H](Cc1ccc(O)cc1)NC(=O)[C@H](CCCCN)NC(=O)[C@H](CO)NC(=O)[C@H](Cc1ccc(O)cc1)NC(=O)[C@H](CC(=O)O)NC(=O)[C@H](CO)NC(=O)[C@@H](NC(=O)[C@H](Cc1ccccc1)NC(=O)[C@@H](NC(=O)CNC(=O)[C@H](Cc1c[nH]cn1)NC(=O)[C@H](CO)NC(=O)[C@@H](N)Cc1c[nH]cn1)[C@@H](C)O)[C@@H](C)O)C(=O)N[C@@H](C)C(=O)N[C@@H](C)C(=O)N[C@@H](Cc1c[nH]cn1)C(=O)N[C@@H](CCC(=O)O)C(=O)N[C@@H](Cc1ccccc1)C(=O)N[C@H](C(=O)N[C@@H](CCC(=O)O)C(=O)N[C@@H](Cc1c[nH]c2ccccc12)C(=O)N[C@@H](CC(C)C)C(=O)N[C@@H](CCC(=O)O)C(=O)N[C@@H](CO)C(=O)N[C@@H](C)C(=O)O)[C@@H](C)CC)C(=O)O` [Compound 18, H-HSHGTFTSDYSKYLEE-K(Hexadecanoyl-isoGlu)-AAHEFIEWLESA-OH] (H-HSHGTFTSDYSKYLEEK([γGlu-Palmitoyl])AAHEFIEWLESA-OH): the “Ratio GLP-1/Glucagon” value in assay [1] was determined as 6.2. Also, the EC50 was found to be 0.87 nM in assay [1], 0.14 nM in assay [2], 0.18 nM in assay [3] and 0.99 nM in assay [4].
